For eight compounds, GI50 and TGI results are on record in PubChem BioAssay (NCI).

SMILES strings stand for the structures. Where “and” joins values, the source holds several entries; their conditions need not be identical. Identical values can stand only once.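 Briefly, cells in 96-well plates were exposed to five compound concentrations for 48 h, and endpoints were estimated by linear interpolation. The concentration for 50% growth inhibition is given as GI50. TGI denotes the concentration required for complete inhibition of growth.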

What all share (assay): NCI-60 cell line screen, 48 h
In assay [1] the test system is KM12 colon.
Assay [2] relates to MDA-MB-435.
The subject of assay [3] is SN12C renal.
In assay [4] the test system is UACC-62 melanoma.
For assay [5], the system named is LOX IMVI melanoma.
The subject of assay [6] is TK-10 renal.
Assay [7] deals with SK-MEL-5 melanoma.
In assay [8] the test system is A549 NSCLC.
Assay [9] deals with OVCAR-3 ovarian.
In assay [10] the test system is PC-3 prostate.

Take `O=C(Nc1ccc(Oc2ccc3nc(NC(=O)c4ccccc4)[nH]c3c2)cc1)Nc1cc(C(F)(F)F)ccc1F`: the GI50 was 244 nM in [1]; 709 nM in assay [2]; 1750 nM in assay [3]; 818 nM in assay [4]; 0.97 µM in [5]; 2.61 µM in [6]. Further, the GI50 is 543 nM in [7], 0.846 µM in [8], 1040 nM in [9] and 624 nM in assay [10]. For the same compound, the TGI was 2 µM in assay [1]; 2.94 µM in assay [2]; more than 25 µM in assay [3]; 4.01 µM in [4]; more than 10.8 µM in [5]; 22 µM in [6]. In addition, the TGI in assay [7] was 1.83 µM; in assay [8] it was 13.3 µM; in assay [9], 6.12 µM; in assay [10], 2.76 µM.

For the compound `Oc1c(CN2CCCC2)cc(COCc2ccc(Br)cc2)c2cccnc12`, the GI50 in assay [1] is 621 nM; in assay [2] it was 1490 nM; in assay [3] it was 989 nM; in assay [4], 343 nM; in assay [5], 0.37 µM; in [6], 0.474 µM. The GI50 in assay [7] was 329 nM; in assay [8], 0.914 µM; in assay [9], 413 nM; in assay [10] it was 1010 nM. For the same compound, the TGI in assay [1] turned out to be 11.3 µM; in [2], 14.4 µM; in assay [3] it was 5.86 µM; in assay [4] it was 1.72 µM; in assay [5], 1.54 µM; in assay [6], 10.3 µM. Further, the TGI was determined as 1.3 µM in assay [7], 9.89 µM in assay [8], 1.87 µM in assay [9] and 5.97 µM in assay [10].

`Cc1cc(C2=NNC(=O)Cc3cc4c(cc32)OCCO4)cc(C)c1N`: the GI50 is 818 nM in assay [1]; 261 nM in assay [2]; 6170 nM in assay [3]; 3590 nM in assay [4]; 3.18 µM in [5]; 8.96 µM in assay [6]. The GI50 in assay [7] was 1220 nM; in assay [8] it was 3.2 µM; in assay [9] it was 892 nM; in [10], 2730 nM. Also, the TGI is more than 100 µM in assay [1]; 0.978 µM in [2]; more than 100 µM in [3]; more than 100 µM in [4]; more than 100 µM in assay [5]; more than 100 µM in assay [6]. For the same compound, the TGI in assay [7] was more than 100 µM; in [8] it was more than 100 µM; in assay [9], 5.6 µM; in assay [10], more than 100 µM.

`O=C(CCCN1CCOCC1)Nc1ccc(Cn2nnc3c2C(=O)c2nnn(Cc4ccc(NC(=O)CCCN5CCOCC5)cc4)c2C3=O)cc1`: the GI50 was 6990 nM in [1]; 1650 nM in assay [2]; 1790 nM in [3]; 2060 nM in assay [4]; 2.01 µM in [5]; more than 100 µM in assay [6]. Moreover, the GI50 in assay [7] is 1520 nM; in assay [8] it was more than 100 µM; in [9], 348 nM; in assay [10], 3670 nM. The TGI was more than 100 µM in [1]; 3.08 µM in assay [2]; 3.67 µM in assay [3]; 5.86 µM in assay [4]; 6.3 µM in [5]; more than 100 µM in assay [6]. In addition, the TGI in assay [7] was 3.55 µM; in [8], more than 100 µM; in [9], 1.54 µM; in assay [10], more than 100 µM.

As to `CN(C)c1ncnc2c1nnn2C1OC(CO)C(O)C1O` (stereo unspecified), the GI50 in [1] is 1070 nM; in [2], 234 nM; in assay [3], 479 nM; in [4], 246 nM; in assay [5], 0.156 µM; in assay [6] it was 0.25 µM. Further, the GI50 in [7] was 737 nM; in assay [8], 3.53 µM; in assay [9], 308 nM; in assay [10] it was 271 nM. The TGI was 32.8 µM in assay [1]; more than 100 µM in [2]; more than 100 µM in assay [3]; 1.55 µM in assay [4]; more than 100 µM in assay [5]; more than 100 µM in [6]. Moreover, the TGI in assay [7] was 5.7 µM; in assay [8] it was more than 100 µM; in [9] it was 2.46 µM; in [10] it was more than 45.5 µM.

For the compound `CN(C)c1ccc(/C=C(\C#N)c2nc3ccccc3n2C)cc1`, the GI50 in assay [1] is 1590 nM; in assay [2] it was 251 nM; in assay [3], 11600 nM; in assay [4], 2040 nM; in [5], 5.68 µM; in [6], 3.24 µM. Also, the GI50 in assay [7] was 1920 nM; in assay [8], 4.53 µM; in assay [9], 1330 nM; in [10], 3910 nM. Moreover, the TGI was 18.4 µM in assay [1]; 3.13 µM in [2]; more than 100 µM in assay [3]; 37.2 µM in assay [4]; more than 62.2 µM in assay [5]; 67.9 µM in assay [6]. Besides, the TGI was 13.6 µM in assay [7], more than 100 µM in [8], 3.73 µM in [9] and more than 48.8 µM in assay [10].

Turning to `CC(=O)OCC(=O)O[C@@H]1C[C@]2(C(C)C)O[C@@]1(C)[C@@H]1CC[C@@H](C)[C@H]1[C@@H]2OC(=O)/C=C/c1ccccc1`, the GI50 is 26700 nM in [1]; 22000 nM in assay [2]; 1880 nM in assay [3]; 14100 nM in assay [4]; 15.5 µM in assay [5]; 15.5 µM in [6]. In addition, the GI50 in assay [7] is 15500 nM; in assay [8], 18.5 µM; in assay [9], 32800 nM; in assay [10] it was 7880 nM. Also, the TGI in assay [1] is more than 100 µM; in [2] it was 59.7 µM; in assay [3], 24.3 µM; in assay [4], 38.3 µM; in assay [5] it was 32.7 µM; in assay [6] it was 39.7 µM. In addition, the TGI in assay [7] was 31.5 µM; in assay [8], more than 100 µM; in [9], more than 100 µM; in assay [10], more than 100 µM.

Consider `CN(N=O)C(=O)N[C@@H](C=O)[C@@H](O)[C@H](O)[C@H](O)CO`, for which the GI50 was more than 750000 nM in assay [1]; more than 750000 nM in [3]; more than 750000 nM in assay [4]; 722 µM and > 750 µM in assay [5]; more than 750000 nM in assay [7]; more than 750 µM in [8]. The TGI in assay [1] is more than 750 µM; in assay [2] it was more than 750 µM; in assay [3], 603 µM and > 750 µM; in assay [4], more than 750 µM; in assay [5], more than 750 µM; in assay [6] it was more than 750 µM. Further, the TGI in assay [7] was 631 µM and > 750 µM; in assay [8] it was more than 750 µM; in assay [9], 670 µM; in assay [10], more than 750 µM.
